Data as given in publication PMC9727064, “Performance assessment and economic analysis of a human Liver-Chip for predictive toxicology” (Communications Medicine, 2022).
Entries after “also recorded” stand apart in the source; their conditions may differ. Read-outs that look alike come from different tables or passages of the source.

Tests used:
[1] = tested on: human Liver-Chip (primary human hepatocytes); assay: Liver-Chip alanine transaminase (ALT) release in top channel effluent (ELISA); type: cell-based; settings: for ALT change in words: Liver-Chip effluent
[2] = tested on: human Liver-Chip (hepatocytes and non-parenchymal cells)
Outline: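 Brightfield images over three fields of view on days 1, 3 and 7 of each cycle, scored 0–4 by two blinded scorers for cytotoxicity in the hepatocyte (top) and non-parenchymal cell (bottom) channels. Scores reflect monolayer integrity, junction loss, cytoplasmic granulation, debris agglomeration and percentage dead cells.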

human Liver-Chip = assay: Liver-Chip DILI prediction: minimum toxic concentration and margin of safety (MOS)-like figure; settings: for Chip MOS both donors / Chip MOS donor 1 / Chip MOS donor 2: free IC50 concentration in the assay divided by total concentration of drug in human plasma at Cmax; for Liver-Chip toxicity determination, MOS-like figure against threshold value of 50: not corrected for protein binding, donors one and two;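 for Chip MOS both donors: Toxic concentration is the lowest across albumin IC50 and ALT and morphology endpoints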;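 for Chip MOS donor 1: Toxic concentration is the lowest across albumin IC50 and ALT and morphology endpoints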;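 for Chip MOS donor 2: Toxic concentration is the lowest across albumin IC50 and ALT and morphology endpoints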
Excerpt: Because the fundamental principles of drug action dictate that free (unbound) drug concentrations drive drug effects, we explored an alternative methodology for calculating the MOS-like values by accounting for protein binding using a previously reported approach. Accordingly, we reanalyzed the findings for the 27 drugs in our study by accounting for protein binding.

[3] = cited from earlier work
[4] = tested on: 3D spheroid cultures of primary human hepatocytes; settings: cited from earlier work; for Spheroid false negative: Yes/No, also No for drugs not tested in spheroid; for Toxicity detection in 3D hepatic spheroids: threshold 50; for Spheroid MOS: 3D hepatic spheroids, previously published data
[5] = tested on: human Liver-Chip (Kupffer cell activation); assay: IL-6 and TNF-alpha in Liver-Chip effluent (MSD U-PLEX); settings: effluent of Liver-Chips from three donors, no inflammatory stimulant
Procedure: Samples were added to plates manually at a 1:2 dilution. Plates were read for cytokine release on the MESO QuickPlex SQ 120 (Meso Scale Discoveries).

[6] = cited from earlier work; remark: listed apart in the source
[7] = tested on: clinical drug-induced liver injury; settings: clinical DILI severity category 1 to 5; cited from earlier work
[8] = lowest concentration causing an increase in ALT protein
[9] = human, total plasma Cmax, ref Xu, J. J. et al. (36)
[10] = expanded drug list, lowest concentration causing an increase in ALT release
[11] = human, total plasma Cmax, reference data from the literature, no reference

SMILES	ALT Donor 1 [1, 8]	ALT Donor 2 [1, 8]	Morphology Donor 1 ([2]; human)	Morphology Donor 2 ([2]; human)	Chip MOS both donors (human Liver-Chip)	Chip MOS donor 1 (human Liver-Chip)	Chip MOS donor 2 (human Liver-Chip)	Human Cmax Total [3, 9] [µM]	Spheroid false negative [4]	ALT Donor 1 [1, 10]	Expected Fraction Unbound in Plasma ([6]; plasma, ref Lau, S.W.J. (65))	Spheroid MOS [4]	Garside DILI rank [7]	other results
C[C@H]1COc2c(N3CCN(C)CC3)c(F)cc3c(=O)c(C(=O)O)cn1c23 [Levofloxacin]	>15 multiples of the unbound human Cmax	>45 multiples of the unbound human Cmax	>15 multiples of the unbound human Cmax	>45 multiples of the unbound human Cmax	>33.7	>11.3	>33.7	15.8	Yes	–	–	–	–	ALT_levels ([1]; Concentration_Day3 = 45, one line per replicate chip): 0; ALT Donor 3 [1, 8]: >45 multiples of the unbound human Cmax; Morphology Donor 3 ([2]; human): >45 multiples of the unbound human Cmax; Liver-Chip toxicity determination, MOS-like figure against threshold value of 50 (human Liver-Chip): not detected; Toxicity detection in 3D hepatic spheroids [4]: not detected as toxic drugs in spheroids; IL-6 and TNFα cytokine production after treatment [5]: no concentration-dependent change in cytokine levels; also recorded: did not detect any concentration-related change; also recorded: unable to see any concentration-dependent increase in cytokine production
Nc1c2c(nc3ccccc13)CCCC2 [Tacrine]	–	–	–	–	>12	>12	>12	0.1	Yes	> 300 unbound human Cmax multiplier	0.25	696	2	ALT change in words [1]: not associated with any release of ALT; ALT Donor 2 [1, 10]: > 1000 unbound human Cmax multiplier; Morphology Donor 1 ([2]; expanded drug list, lowest concentration causing an increase in morphology score, donor 1): > 300 unbound human Cmax multiplier; Morphology Donor 2 ([2]; expanded drug list, lowest concentration causing an increase in morphology score, donor 2): > 1000 unbound human Cmax multiplier; Liver-Chip toxicity determination, MOS-like figure against threshold value of 50 (human Liver-Chip): not detected; Toxicity detection in 3D hepatic spheroids [4]: not detected as toxic drugs in spheroids
CC[C@H]1OC(=O)[C@H](C)C(=O)[C@H](C)[C@@H](O[C@@H]2O[C@H](C)C[C@H](N(C)C)[C@H]2O)[C@](C)(OC)C[C@@H](C)C(=O)[C@H](C)[C@H]2N(CCCCn3cnc(-c4cccnc4)c3)C(=O)O[C@]12C [Telithromycin]	–	–	100 unbound human Cmax multiplier	–	–	6	–	–	No	30 unbound human Cmax multiplier	0.4	–	1	ALT change in words [1]: concomitant increase; Morphological injury score change in words [2]: concomitant increase; Human Cmax Total [3, 11]: 2.79 µM
Cc1ccc(C(=O)c2cc(O)c(O)c([N+](=O)[O-])c2)cc1 [Tolcapone]	100 multiples of the unbound human Cmax	30 multiples of the unbound human Cmax	–	–	0.004	0.004	0.05	–	No	–	0.0012	0.3	1	Morphology Donor 1 ([2]; lowest concentration causing an increase in cellular morphology score, donor 1): 10 multiples of the unbound human Cmax; Morphology Donor 2 ([2]; lowest concentration causing an increase in cellular morphology score, donor 2): 100 multiples of the unbound human Cmax; Human Cmax Total [3, 11]: 47.6 µM
Cc1c(C)c2c(c(C)c1O)CCC(C)(COc1ccc(CC3SC(=O)NC3=O)cc1)O2 (centres unmarked) [Troglitazone]	300 multiples of the unbound human Cmax	300 multiples of the unbound human Cmax	300 multiples of the unbound human Cmax	300 multiples of the unbound human Cmax	0.03	0.03	0.1	6.08	No	–	–	2.3	1	Expected Fraction Unbound in Plasma ([6]; plasma, reference data from the literature, no reference): 0.0011
N[C@@H]1[C@H]2CN(c3nc4c(cc3F)c(=O)c(C(=O)O)cn4-c3ccc(F)cc3F)C[C@@H]12 [Trovafloxacin]	100 multiples of the unbound human Cmax	100 multiples of the unbound human Cmax	100 multiples of the unbound human Cmax	100 multiples of the unbound human Cmax	–	–	–	–	–	–	–	–	–	ALT Donor 3 [1, 8]: 30 multiples of the unbound human Cmax; Morphology Donor 3 ([2]; human): 30 multiples of the unbound human Cmax; IL-6 and TNFα cytokine production after treatment [5]: no concentration-dependent change in cytokine levels; also recorded: did not detect any concentration-related change; also recorded: unable to see any concentration-dependent increase in cytokine production
CC(c1cc2ccccc2s1)N(O)C(N)=O (centres unmarked) [Zileuton]	–	–	> 100 unbound human Cmax multiplier	> 300 unbound human Cmax multiplier	15	>7	15	–	Yes	> 100 unbound human Cmax multiplier	–	>7.7	2	ALT Donor 2 [1, 10]: > 300 unbound human Cmax multiplier; Human Cmax Total ([3]; human therapeutic total plasma Cmax from literature, ref Xu, J. J. et al. (36)): 13.1 µM; plasma protein bound [6]: > 93%; Expected Fraction Unbound in Plasma ([6]; human plasma, ref Scott, L. J. (69)): 0.07
